Measured values published in patent US20230174523A1, “BENZENESULFONAMIDE DERIVATIVES AS TRAP1 MODULATORS AND USES THEREOF” (Amathus Therapeutics, Inc., priority 2020, published 2023).

Columns and labels:
TRAP1 enzyme [1] = molecular target: T1, TRAP1 enzyme (Homo sapiens, UniProt Q12931); assay: Malachite green phosphate assay of TRAP1 ATPase activity; format: biochemical; conditions: for EC50: TRAP1 ATPase activation, 150 nM Trap1, 20 μM ATP, geometric mean, read-out: Malachite Green Fluor DRC: GeoMean EC50; for Emax: read-out: Malachite Green Fluor DRC: Mean Emax
T1 sequence (Q12931 60-704): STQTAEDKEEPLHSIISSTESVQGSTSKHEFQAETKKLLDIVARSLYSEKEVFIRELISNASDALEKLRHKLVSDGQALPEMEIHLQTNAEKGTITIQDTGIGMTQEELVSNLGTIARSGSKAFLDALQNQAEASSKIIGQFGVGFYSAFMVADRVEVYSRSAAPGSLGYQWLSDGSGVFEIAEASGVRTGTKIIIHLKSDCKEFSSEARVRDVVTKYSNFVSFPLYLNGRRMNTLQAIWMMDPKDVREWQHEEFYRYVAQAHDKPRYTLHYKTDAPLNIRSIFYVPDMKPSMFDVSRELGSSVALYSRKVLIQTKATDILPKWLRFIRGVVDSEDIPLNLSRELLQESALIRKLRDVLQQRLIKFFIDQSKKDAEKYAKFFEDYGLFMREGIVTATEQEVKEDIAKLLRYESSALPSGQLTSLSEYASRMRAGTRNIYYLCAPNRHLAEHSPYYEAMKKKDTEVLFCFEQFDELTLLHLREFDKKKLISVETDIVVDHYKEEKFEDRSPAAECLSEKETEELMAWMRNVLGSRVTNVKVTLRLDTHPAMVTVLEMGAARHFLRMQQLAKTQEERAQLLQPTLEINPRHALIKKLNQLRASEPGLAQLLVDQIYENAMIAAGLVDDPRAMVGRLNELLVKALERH
Description: The Potency of test compounds to modulate the ATPase activity of TRAP1 enzyme was evaluated using malachite green phosphatase assay. The assay is based on quantification of the green complex formed between Malachite Green, molybdate and inorganic phosphate generated in the phosphatase reaction. Assays were performed using a Malachite Green assay kit. All the assays were carried out in a 96-well transparent plate. The buffer used was 50 mM HEPES (pH 7.5), 20 mM KCl, 4 mM MgCl2 and 0.05% BSA. 150 nM Trap1 enzyme was incubated with various concentrations of the test compound (0.78 μM-100 μM) at 37° C. for 30 mins. 20 μM ATP was added to each well (except blank wells) to start the reaction and the plate was then incubated at 37° C. for 180 mins. 10 μl of the reaction volume of each sample was then transferred to a white 384-well proxiplate in quadruplets. 2.5 μl of Malachite Green reagent was added to all the wells and the plate was equilibrated for 15 mins. The reaction was stopped by adding 12% H2SO4 and the plate was read for fluorescence at 620 nm (λex=573 nm). The amount of phosphate released was estimated from a phosphate standard curve generated at the same experimental conditions. Emax (Maximal percent activation) and EC50 (concentration of test compound for half maximal activation) were estimated by fitting the dose response data to a sigmoidal curve fitting equation using Graphpad Prism software V.7.0.

TRAP1 enzyme [2] = molecular target: T1, TRAP1 enzyme; assay: ADP Glo assay of TRAP1 ATPase activity; format: biochemical; conditions: for EC50: TRAP1 ATPase activation, 150 nM Trap1, 20 μM ATP, geometric mean, read-out: ADP GLO DRC: GeoMean EC50; for Emax: read-out: ADP GLO DRC: Mean Emax
Procedure, shortened: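 150 nM TRAP1 preincubated with compound (0.79–100 μM) 30 min at 37° C in Pipes pH 7.5 buffer (0.05 mM MgCl2, 40 mM KCl), then 20 μM ATP added for 60 min at 37° C. ADP quantified by ADP-Glo luminescence against ATP/ADP standard curve. Emax and EC50 from sigmoidal fit.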

SMILES	EC50 (TRAP1 enzyme [1])	Emax (TRAP1 enzyme [1])	EC50 (TRAP1 enzyme [2])	Emax (TRAP1 enzyme [2])
O=C(Nc1ccc(CCO)c(S(=O)(=O)Nc2ccc(Br)cc2)c1)c1ncco1 [Compound 333, N-(3-(N-(4-bromophenyl)sulfamoyl)-4-(2-hydroxyethyl)phenyl) oxazole-2-carboxamide]	20 to 100 µM	160 to 199%		
O=C(Nc1ccc(OC(F)(F)F)c(S(=O)(=O)Nc2c(Cl)cccc2Cl)c1)c1cnc(-c2ccccc2)o1 [Compound 655]	< 10 µM	160 to 199%		
COc1ccc(NC(=O)c2nc(C(F)(F)F)cs2)cc1S(=O)(=O)Nc1ccc(Br)cc1 [Compound 370, N-(3-(N-(4-bromophenyl)sulfamoyl)-4-methoxyphenyl)-4-(trifluoromethyl) thiazole-2-carboxamide]	20 to 100 µM	200 to 300%		
COc1ccc(NC(=O)c2nccs2)cc1S(=O)(=O)Nc1ccc(Br)cc1 [Compound 304]	10 to 20 µM	200 to 300%		
CCc1ccc(NC(=O)c2cnccc2C)cc1S(=O)(=O)Nc1ccc(C)cc1 [Compound 277]	10 to 20 µM	123 to 159%		
CCc1ccc(NC(=O)c2ncc(-c3ccccc3)o2)cc1S(=O)(=O)Nc1ccc(Cl)nc1 [Compound 548]	< 10 µM	123 to 159%		
COc1ccc(NC(=O)c2cc(C)n(C(F)F)n2)cc1S(=O)(=O)Nc1c(C)cccc1C [Compound 1149]			10 to 20 µM	123 to 159%
COc1ccc(NC(=O)c2cccc(-c3cncnc3)c2)cc1S(=O)(=O)Nc1c(C)cccc1C [Compound 1248]			20 to 100 µM	160 to 199%
COc1ccc(NC(=O)c2nnc(-c3ccccc3)[nH]2)cc1S(=O)(=O)Nc1ccc(Cl)cc1 [Compound 586, N-(3-(N-(4-chlorophenyl)sulfamoyl)-4-methoxyphenyl)-5-phenyl-4H-1,2,4-triazole-3-carboxamide]			10 to 20 µM	160 to 199%
COc1ccc(NC(=O)c2cnc(Cl)s2)cc1S(=O)(=O)Nc1c(C)cccc1C [Compound 1070]			< 10 µM	200 to 300%
COc1ccc(NC(=O)c2ncn(C(C)C)n2)cc1S(=O)(=O)Nc1c(C)cccc1C [Compound 1069]			20 to 100 µM	160 to 199%
COc1ccc(NC(=O)c2c(C)cc(Cl)nc2Cl)cc1S(=O)(=O)Nc1c(C)cccc1C [Compound 1037]			20 to 100 µM	160 to 199%
COc1ccc(NC(=O)c2scc(C)c2Cl)cc1S(=O)(=O)Nc1c(C)cccc1C [Compound 1128]			< 10 µM	160 to 199%
COc1ccc(NC(=O)c2cc3ccccc3n2C)cc1S(=O)(=O)Nc1c(C)cccc1C [Compound 1170]			< 10 µM	123 to 159%
COc1ccc(NC(=O)c2ccc(C)nc2OC)cc1S(=O)(=O)Nc1ccc(Cl)cc1 [Compound 1963]			20 to 100 µM	160 to 199%
COc1ccc(NC(=O)c2ncccc2C(=O)c2ccccc2)cc1S(=O)(=O)Nc1c(C)cccc1C [Compound 1275]			20 to 100 µM	123 to 159%
COc1ccc(NC(=O)c2cnc(-c3ccccc3C)[nH]2)cc1S(=O)(=O)Nc1ccc(Cl)cc1 [Compound 1971]			< 10 µM	200 to 300%
COc1ccc(NC(=O)c2cnccc2-c2ccccc2)cc1S(=O)(=O)Nc1c(C)cccc1C [Compound 1022]			20 to 100 µM	200 to 300%
COc1ccc(NC(=O)c2cnn(-c3ccc(Cl)cc3)c2C)cc1S(=O)(=O)Nc1c(C)cccc1C [Compound 1110]			< 10 µM	160 to 199%
O=C(Nc1ccc(F)c(S(=O)(=O)Nc2ccc(Cl)cc2)c1)c1cccc2c1OC(F)(F)O2 [Compound 737]			10 to 20 µM	123 to 159%
COc1ccc(NC(=O)c2cc3cc(Br)cnc3s2)cc1S(=O)(=O)Nc1c(C)cccc1C [Compound 1020]			10 to 20 µM	200 to 300%
COc1ccc(NC(=O)c2c[nH]c3cnccc23)cc1S(=O)(=O)Nc1c(C)cccc1C [Compound 1288]			20 to 100 µM	160 to 199%
CCc1ccc(NC(=O)c2cccc3ncn(C)c23)cc1S(=O)(=O)Nc1c(C)cccc1C [Compound 1353]			10 to 20 µM	160 to 199%

SMILES	EC50 (TRAP1 enzyme [1])	Emax (TRAP1 enzyme [1])	EC50 (TRAP1 enzyme [2])	Emax (TRAP1 enzyme [2])
Cc1onc(-c2ccccc2Cl)c1C(=O)Nc1ccc(F)c(S(=O)(=O)Nc2ccc(Cl)cc2)c1 [Compound 728]			10 to 20 µM	123 to 159%
COc1ccc(NC(=O)c2ncc(-c3ccccc3)o2)cc1S(=O)(=O)Nc1ccc(C)nc1F [Compound 1684]			20 to 100 µM	123 to 159%
COc1ccc(NC(=O)c2nn(C)c3c2CCC3)cc1S(=O)(=O)Nc1c(C)cccc1C [Compound 1010]			10 to 20 µM	200 to 300%
COc1ccc(NC(=O)c2ccnc(-c3ccccc3)c2)cc1S(=O)(=O)Nc1c(C)cccc1C [Compound 1285]			< 10 µM	200 to 300%
COCCn1ccc(C(=O)Nc2ccc(OC)c(S(=O)(=O)Nc3c(C)cccc3C)c2)n1 [Compound 1066]			20 to 100 µM	160 to 199%
COc1ccc(NC(=O)c2csc(-c3ccccc3)n2)cc1S(=O)(=O)N(CC(O)CO)c1ccc(Cl)cc1 (centres unmarked) [Compound 2404]			< 10 µM	123 to 159%
COc1ccc(NC(=O)c2cnc3ccoc3c2)cc1S(=O)(=O)Nc1c(C)cccc1C [Compound 1064]			20 to 100 µM	200 to 300%
COc1ccc(NC(=O)c2cnn(-c3cccnc3)c2)cc1S(=O)(=O)Nc1c(C)cccc1C [Compound 1106]			10 to 20 µM	200 to 300%
COc1ccc(NC(=O)c2cnc(Cl)cc2Cl)cc1S(=O)(=O)Nc1c(C)cccc1C [Compound 1082]			20 to 100 µM	200 to 300%
COc1ccc(NC(=O)c2cn(C)c3ncccc23)cc1S(=O)(=O)Nc1c(C)cccc1C [Compound 1108]			10 to 20 µM	> 300%
COc1ccc(NC(=O)c2cc(C)nc3onc(C)c23)cc1S(=O)(=O)Nc1c(C)cccc1C [Compound 1226]			20 to 100 µM	123 to 159%
COc1ccc(NC(=O)c2ccc3ncccc3c2)cc1S(=O)(=O)Nc1c(C)cccc1C [Compound 1241]			10 to 20 µM	200 to 300%
Cc1cc(C)n(Cc2cccc(C(=O)Nc3ccc(F)c(S(=O)(=O)Nc4ccc(Cl)cc4)c3)c2)n1 [Compound 807]			< 10 µM	160 to 199%
Cc1cc(C(=O)Nc2ccc(F)c(S(=O)(=O)Nc3ccc(Cl)cc3)c2)n(Cc2ccc(F)cc2)n1 [Compound 776]			10 to 20 µM	123 to 159%
COc1ccc(NC(=O)c2ccccc2C2CC2)cc1S(=O)(=O)Nc1c(C)cccc1C [Compound 1028]			10 to 20 µM	160 to 199%
COc1ccc(NC(=O)c2cccc(OC3CCOCC3)n2)cc1S(=O)(=O)Nc1c(C)cccc1C [Compound 1154]			20 to 100 µM	200 to 300%
COc1ccc(NC(=O)c2ccc3nc(C)ccc3c2)cc1S(=O)(=O)Nc1c(C)cccc1C [Compound 1118]			10 to 20 µM	200 to 300%
COc1ccc(NC(=O)c2cccc3ccoc23)cc1S(=O)(=O)Nc1c(C)cccc1C [Compound 1094]			< 10 µM	200 to 300%
Cc1oc(C)c(C(=O)Nc2ccc(F)c(S(=O)(=O)Nc3ccc(Cl)cc3)c2)c1C [Compound 740]			10 to 20 µM	123 to 159%
COc1ccc(NC(=O)c2c(I)cnn2C)cc1S(=O)(=O)Nc1c(C)cccc1C [Compound 1088]			20 to 100 µM	160 to 199%
COc1ccc(NC(=O)c2csc(C)c2C)cc1S(=O)(=O)Nc1c(C)cccc1C [Compound 1005]			< 10 µM	200 to 300%
COc1ccc(NC(=O)c2cccc(-c3ccccn3)c2)cc1S(=O)(=O)Nc1c(C)cccc1C [Compound 1271]			< 10 µM	160 to 199%
CCc1cc(C(=O)Nc2ccc(OC)c(S(=O)(=O)Nc3c(C)cccc3C)c2)cc(C)n1 [Compound 1018]			10 to 20 µM	> 300%
